Laboratory results as given in patent EP2131850B1, “EXTRACTS OF ASTER KORAIENSIS, AND PHARMACEUTICAL COMPOSITION AND FUNCTIONAL FOOD COMPRISING THE SAME” (Korea Institute of Oriental Medicine, priority 2007, dated 2008).
Converted amounts (≈) assume the structure as drawn.

Tested on: production of advanced glycation endproducts (glycation of bovine serum albumin (BSA))
Assay: In vitro inhibition of production of advanced glycation endproducts (BSA/fructose/glucose culture, fluorescence)
Assay type: biochemical
Conditions: for Inhibition (%) of production of advanced glycation endproducts Inhibition: cultured at 37 °C for 14 days
Description: For the in vitro analysis of the inhibitory effect cf each cf the leaf and stem extract of Aster koraiensis, the root extract of Aster koraiensis, the flower extract of Aster koraiensis, and the fractions cf each of the extracts, on the production cf advanced glycation endproducts, bovine serum albumin (hereinafter, referred to as BSA; Sigma, USA)) was selected as a protein source. BSA was added to 50 mM phosphate buffer (pH 7.4) to a concentration of 10 mg/mℓ. As a sugar source, a mixture of 0.2 M fructose and 0.2 M glucose was used. The fructose/glucose mixture was added to the prepared BSA solution. As test groups, each of the leaf and stem extract cf Aster koraiensis, the root extract cf Aster koraiensis, the flower extract of Aster koraiensis, and the hexane fraction, ethyl acetate fraction, butanol fraction and water fraction of each cf the extracts, was dissolved in distilled water. Then, each of the solutions was added to the BSA/sugar mixture and cultured at 37 °C for 14 days.
At this time, 0.02% sodium azide was added as an antibacterial agent. A control group was a culture of the BSA/sugar mixture, and the blank of each cf the test groups and the control group was not cultured after their preparation. Meanwhile, as a positive control for use as an index to determine the superiority cf the inventive material, aminoguanidine was used. Four samples for each of the cultures were prepared to minimize errors. After 14 days, the content of advanced glycation endproducts (AGEs) in each of the cultures was analyzed, and the analysis results were recorded. […] The amount cf advanced glycation endproducts having such properties was measured with a spectrofluorometer (excitation: 350 nm, and emission: 450 nm) to analyze the inhibition of the production of advanced glycation endproducts. […]
Each of the root extract and flower extract of Aster koraiensis, prepared in Example, were prepared into solutions having concentrations cf 10 µg/mℓ, 25 µg/mℓ and 50 µg/mℓ, respectively. […] After 14 days, the amount of advanced glycation endproducts produced in each of the cultures was measured with a spectrcfluorometer (excitation: 350 nm, and emission: 450 nm), and the measurement results are shown in Table 1 and FIG. 2.
The inhibition of the production of advanced glycation endproducts is calculated according to the following equation: Inhibition (%) of production = 100-(fluorescentintensityofsamplegroupfluorescentintensityofblankofsamplegroup)/(fluorenscentintensityofcontrolgroup-fluorescentintensityofblankofcontrolgroup)x100 [formula] […]
After 14 days, the amount cf advanced glycation endproducts produced in each cf the cultures was measured with a spectrcfluorometer (excitation: 350 nm, and emission: 450 nm).

## N=C(N)NN [Aminoguanidine]
Concentration 18.5 µg/mℓ
  Inhibition (%) of production of advanced glycation endproducts Inhibition: 12.70 ± 6.12%
Concentration 55.5 µg/mℓ
  Inhibition (%) of production of advanced glycation endproducts Inhibition: 39.46 ± 1.91%
Concentration 74.0 µg/mℓ
  Inhibition (%) of production of advanced glycation endproducts Inhibition: 50.68 ± 0.51%
Production of advanced glycation endproducts, BSA/sugar mixture, 14 days
  IC50 inhibitory concentration: 72.12 µg/mL (≈ 973 µM)
